From patent publication US10464977B2 (University of Maryland, Baltimore, priority 2016, dated 2019) come the findings set out here.

Residues, ends and D or L forms follow the SMILES beside them. No end group written: not given here.

In data set [1] the test system is Sap2. Briefly: 6.25 μg mL^−1 Sap2 in 1 mM NaPB. To be noted: C. albicans, 37° C., up to 2 h.
Data set [2] has as its system Sap2. Briefly: 18 μg mL^−1 Sap2 in 1 mM sodium phosphate buffer (NaPB). To be noted: C. albicans, 37° C., up to 2 h.
Data set [3] deals with Sap9. Briefly: 3.13 μg mL^−1 Sap9 in 1 mM NaPB. To be noted: C. albicans, 37° C., up to 2 h.
Data set [4] concerns the target T1, Sap2 (Candida albicans, UniProt P0DJ06). Briefly: in vitro. To be noted: for degradation by Sap2 (in words): 6.25 μg mL^−1 Sap2, 150 μg mL^−1 peptide; for degradation by Sap2 (in words) / intact peptide remaining after incubation with higher Sap2 concentration: 2 h, 37° C.; for intact peptide remaining after incubation with higher Sap2 concentration: 18 μg mL^−1 Sap2, 150 μg mL^−1 peptide. The protocol: (§1) Experiments were done in 1 mM NaPB. The mixtures were incubated at 37° C. for 2 h, and NaPB with no Sap was used as a control. After the incubation, the samples were mixed with tricine sample buffer (without Coomassie Blue G-250, except in control samples) containing β-mercaptoethanol and boiled for 5 min at 100° C. to inactivate the proteases. The degraded and non-degraded peptides were separated by gel electrophoresis in 10-20% Tris-tricine gels (Bio-Rad), and the gels were then fixed in a 10% acetic acid/40% methanol/50% water mixture for 30 min. The fixed gels were stained with Bio-Safe Coomassie stain (Bio-Rad) for 1 h and washed with fresh water three times, once overnight and then twice for at least 2 h each time. The gels were imaged on a Chemidoc imager (Bio-Rad), and densitometric analysis was done with Image Lab software (Bio-Rad). […] Three replicates of the assay were done.
(§2) To measure the antifungal activity of the peptides following degradation by the Saps, the antifungal activity assay was performed as described above, except the peptides were first exposed to Saps. The peptide fragments were prepared by incubating each peptide (150 μg mL^−1) with 6.25 μg mL^−1 Sap9 or 18 μg mL^−1 Sap2 for 2 h at 37° C. The enzymes were then inactivated by heating at 100° C. for 5 min. As controls, each peptide was also incubated with only NaPB buffer. Samples were then stored at −20° C. until use in the antifungal activity assay.
(§3) The intact peptide was then separated from the degradation products using gel electrophoresis and quantified the level of degradation using densitometric analysis of Coomassie-stained gels.
(§4) To amplify differences in antifungal activity due to degradation by the Saps, the concentrations of the Saps was increased by at least two-fold compared to the concentrations used for the gel electrophoresis data in FIGS. 1A-1D (to 6.25 μg mL^−1 for Sap9 and 18 μg mL^−1 for Sap2).

The target in data set [5] is T2, Sap9 (Candida albicans, UniProt Q59SU1). Briefly: in vitro. To be noted: Candida albicans, isolated enzyme. The protocol:
as §1, §2, §3, §4

Data set [6] deals with T1, Sap2. To be noted: 6.25 μg mL^−1 Sap2. The method, then: (§5) The cleavage sites of the Saps and the abundance of the fragments produced by cleavage were determined using mass spectrometry. […] The binding solution was 0.1% formic acid, and the releasing solution was 0.1% formic acid/60% acetonitrile (ACN). To ensure equal flow-through volume of each sample, 18 μL of desalted sample was aliquoted and 1 μL of the four-amino acid peptide MRFA at 0.1 mg mL^−1 was added. Samples were manually loaded through loop injection at 25 μL min^−1 with 40% ACN/0.1% formic acid. Mass spectra were acquired with a Thermo Scientific Orbitrap Fusion Lumos Tribrid mass spectrometer with data-dependent analysis at a 5 s cycle time. Manufacturer recommended source parameters for a flow rate of 25 μL min^−1 were applied. Full scan mass spectra of m z^−1 350-1550 were acquired in the orbitrap at R=120000 (m z^−1 200) with fluoranthene ion as the internal calibrant. CID and ETD fragments of the most intense ions (z>1) were recorded with the orbitrap at R=60000 (m z^−1 200). Dynamic exclusion was set at 30 s.
(§6) The molecular weights of the peptides and their fragments were calculated from full scan MS spectra using the XTract program in the XCalibur software (Thermo Scientific). MS/MS spectra from ETD and CID fragmentation were processed using Proteome Discoverer (V2.1) with Prosight PD node to identify peptides and their degradation products. […] Intensities of identified peptides and their degradation products relative to the internal standard MRFA were obtained from the deconvoluted full scan mass spectra.
(§7) After incubation of the peptides with each Sap, the four-amino-acid peptide MRFA was added as an internal standard, and samples were directly injected into the mass spectrometer.

The target in data set [7] is T2, Sap9. To be noted: 3.13 μg mL^−1 Sap9. The protocol: as §5, §6, §7
For data set [8], the system named is C. albicans cells (ATCC 90028). Briefly: Degradation of peptides by whole C. albicans cells, gel densitometry. It is filed as in vitro ADME. To be noted: 1×10^9 cells mL^−1, 150 μg mL^−1 peptide, 2 h, 37° C., 100 mM NaPB. The protocol:
For degradation with C. albicans, a single colony of the ATCC 90028 strain (American Type Culture Collection) was used to inoculate YPD. The culture was grown overnight, subcultured, and grown to an optical density of 1-1.2 at OD600. All incubations were done at 30° C. The cells were washed three times in 100 mM NaPB and diluted to 2×10^9 cells mL^−1. Equal volumes of cells and peptides were mixed and incubated for 2 h at 37° C. The cells were removed by centrifugation, and the supernatants were mixed with tricine sample buffer and boiled for 10 min. The samples were then run on gels and analyzed as described above for degradation by the Saps. Three biological replicates were performed.
After observing the effect of residue modifications on the cleavage of Hst-5 by the purified recombinant Saps, whether incubation of the peptides with whole C. albicans cells expressing Saps (rather than Saps produced recombinantly) would yield similar results was evaluated. Hst-5 and the synthetic peptides were incubated with C. albicans cells for 2 h at 37° C. in 100 mM NaPB. The high ionic strength of this buffer prevents internalization of the peptides by C. albicans (4) allowing analysis of degradation of the peptides without the confounding effects of peptide internalization, which would reduce the amount of peptide in the reaction buffer.

T2 sequence (Q59SU1 18-520): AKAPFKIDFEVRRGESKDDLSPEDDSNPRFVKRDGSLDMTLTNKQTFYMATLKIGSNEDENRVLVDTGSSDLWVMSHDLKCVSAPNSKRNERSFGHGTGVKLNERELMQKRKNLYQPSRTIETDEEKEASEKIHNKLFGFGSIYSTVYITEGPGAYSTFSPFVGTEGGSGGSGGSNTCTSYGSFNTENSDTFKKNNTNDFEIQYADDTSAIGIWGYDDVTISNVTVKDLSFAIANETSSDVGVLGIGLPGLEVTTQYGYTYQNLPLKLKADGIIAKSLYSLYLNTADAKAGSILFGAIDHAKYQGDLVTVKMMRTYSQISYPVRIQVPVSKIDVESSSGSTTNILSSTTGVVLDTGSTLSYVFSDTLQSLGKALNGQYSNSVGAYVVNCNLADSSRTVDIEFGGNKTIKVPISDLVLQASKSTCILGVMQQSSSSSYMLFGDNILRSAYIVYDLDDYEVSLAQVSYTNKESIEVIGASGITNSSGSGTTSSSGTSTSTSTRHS
T1 sequence (P0DJ06 57-398): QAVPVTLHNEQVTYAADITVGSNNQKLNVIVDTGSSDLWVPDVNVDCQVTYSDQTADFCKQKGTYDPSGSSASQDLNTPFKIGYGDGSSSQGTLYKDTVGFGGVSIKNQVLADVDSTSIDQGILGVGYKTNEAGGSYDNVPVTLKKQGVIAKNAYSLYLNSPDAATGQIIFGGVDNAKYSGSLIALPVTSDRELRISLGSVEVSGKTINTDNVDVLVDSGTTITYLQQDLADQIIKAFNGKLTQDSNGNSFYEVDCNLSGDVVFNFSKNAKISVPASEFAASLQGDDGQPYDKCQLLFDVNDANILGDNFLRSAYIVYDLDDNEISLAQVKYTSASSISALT

With DSHAKRHHGYKRKFHERHHSHRGY, the cleaved bond result in the data set with Sap2 [1] was “R17-H18”. Besides, the not cleaved result with Sap2 [2] is on record as “over 90% remaining”.
For DSHAKRHHGYRRKFHERHHSHRGY, the not cleaved entry in the data set with Sap9 [3] and in the data set with Sap2 [1] was “no observable degradation” throughout.
One may read the amount remaining as the share of the starting amount still present when the sample was taken. Consider `CC(C)C[C@H](NC(=O)[C@H](CCC(=O)O)NC(=O)[C@H](Cc1c[nH]cn1)NC(=O)[C@H](Cc1ccccc1)NC(=O)[C@H](CCCCN)NC(=O)[C@H](CCCNC(=N)N)NC(=O)[C@H](CCCCN)NC(=O)[C@H](Cc1ccc(O)cc1)NC(=O)CNC(=O)[C@H](Cc1c[nH]cn1)NC(=O)[C@H](Cc1c[nH]cn1)NC(=O)[C@H](CCCNC(=N)N)NC(=O)[C@H](CCCCN)NC(=O)[C@H](C)NC(=O)[C@H](Cc1c[nH]cn1)NC(=O)[C@H](CO)NC(=O)[C@@H](N)CC(=O)O)C(=O)N[C@@H](Cc1c[nH]cn1)C(=O)N[C@@H](Cc1c[nH]cn1)C(=O)N[C@@H](CO)C(=O)N[C@@H](Cc1c[nH]cn1)C(=O)N[C@@H](CCCNC(=N)N)C(=O)NCC(=O)N[C@@H](Cc1ccc(O)cc1)C(=O)O` [Peptide K17L] (H-DSHAKRHHGYKRKFHELHHSHRGY-OH; N-terminus and C-terminus assumed), for which, on Sap2 [4], the “degradation by Sap2 (in words)” value is reported as “No detectable degradation” and the “intact peptide remaining after incubation with higher Sap2 concentration” value is given as “over 70%”. At Sap9 [5], the fraction remaining at 2 h, 150 μg mL^−1 is 77%. Besides, the “cleavage at the C-terminal side of K17 by Sap2 (mass spectrometry)” value at Sap2 [6] is given as “still cleaved”. In addition, at Sap9 [7], the “cleavage on the C-terminal side of K17 by Sap9 (mass spectrometry)” value is on record as “neither K17R nor K17L showed significant cleavage at this site” and the “mass spectrometry signal of intact peptide versus fragments, Sap9” value is recorded as “the most intense signal came from the intact peptide”.
With `CC(C)C[C@H](NC(=O)[C@H](CCCNC(=N)N)NC(=O)[C@H](CCCCN)NC(=O)[C@H](Cc1ccc(O)cc1)NC(=O)CNC(=O)[C@H](Cc1c[nH]cn1)NC(=O)[C@H](Cc1c[nH]cn1)NC(=O)[C@H](CCCNC(=N)N)NC(=O)[C@H](CCCCN)NC(=O)[C@H](C)NC(=O)[C@H](Cc1c[nH]cn1)NC(=O)[C@H](CO)NC(=O)[C@@H](N)CC(=O)O)C(=O)N[C@@H](Cc1ccccc1)C(=O)N[C@@H](Cc1c[nH]cn1)C(=O)N[C@@H](CCC(=O)O)C(=O)N[C@@H](CCCCN)C(=O)N[C@@H](Cc1c[nH]cn1)C(=O)N[C@@H](Cc1c[nH]cn1)C(=O)N[C@@H](CO)C(=O)N[C@@H](Cc1c[nH]cn1)C(=O)N[C@@H](CCCNC(=N)N)C(=O)NCC(=O)N[C@@H](Cc1ccc(O)cc1)C(=O)O` [Peptide K13L] (H-DSHAKRHHGYKRLFHEKHHSHRGY-OH; N-terminus and C-terminus assumed), the “degradation by C. albicans cells (in words)” value in data set [8] was “increase in degradation compared to the parent Hst-5”. In addition, the “mass spectrometry signal of intact peptide versus fragments, Sap9” value on Sap9 [7] is on record as “apparent shift in cleavage site preference compared to the parent Hst-5”.
`C[C@H](NC(=O)[C@H](Cc1c[nH]cn1)NC(=O)[C@H](CO)NC(=O)[C@@H](N)CC(=O)O)C(=O)N[C@@H](CCCCN)C(=O)N[C@@H](CCCNC(=N)N)C(=O)N[C@@H](Cc1c[nH]cn1)C(=O)N[C@@H](Cc1c[nH]cn1)C(=O)NCC(=O)N[C@@H](Cc1ccc(O)cc1)C(=O)N[C@@H](CCCCN)C(=O)N[C@@H](CCCNC(=N)N)C(=O)N[C@@H](CCCCN)C(=O)N[C@@H](Cc1ccccc1)C(=O)N[C@@H](Cc1c[nH]cn1)C(=O)N[C@@H](CCC(=O)O)C(=O)N[C@@H](CCCNC(=N)N)C(=O)N[C@@H](Cc1c[nH]cn1)C(=O)N[C@@H](Cc1c[nH]cn1)C(=O)N[C@@H](CO)C(=O)N[C@@H](Cc1c[nH]cn1)C(=O)N[C@@H](CCCNC(=N)N)C(=O)NCC(=O)N[C@@H](Cc1ccc(O)cc1)C(=O)O` [Peptide K17R] (H-DSHAKRHHGYKRKFHERHHSHRGY-OH; N-terminus and C-terminus assumed): on Sap2 [4], the “degradation by Sap2 (in words)” value was “No detectable degradation” and the “intact peptide remaining after incubation with higher Sap2 concentration” value is reported as “over 90%”. The same compound showed a share remaining at 2 h, 150 μg mL^−1 at Sap9 [5] of 82%. The “cleavage at the C-terminal side of K17 by Sap2 (mass spectrometry)” value on Sap2 [6] was “still cleaved”. For the same compound, on Sap9 [7], the “cleavage on the C-terminal side of K17 by Sap9 (mass spectrometry)” value is “neither K17R nor K17L showed significant cleavage at this site” and the “mass spectrometry signal of intact peptide versus fragments, Sap9” value is on record as “the most intense signal came from the intact peptide”.
As for `C[C@H](NC(=O)[C@H](Cc1cnc[nH]1)NC(=O)[C@H](CO)NC(=O)[C@@H](N)CC(=O)O)C(=O)N[C@@H](CCCCN)C(=O)N[C@@H](CCCNC(=N)N)C(=O)N[C@@H](Cc1cnc[nH]1)C(=O)N[C@@H](Cc1cnc[nH]1)C(=O)NCC(=O)N[C@@H](Cc1ccc(O)cc1)C(=O)N[C@@H](CCCCN)C(=O)N[C@@H](CCCNC(=N)N)C(=O)N[C@@H](CCCCN)C(=O)N[C@@H](Cc1ccccc1)C(=O)N[C@@H](Cc1cnc[nH]1)C(=O)N[C@@H](CCC(=O)O)C(=O)N[C@@H](CCCCN)C(=O)N[C@@H](Cc1cnc[nH]1)C(=O)N[C@@H](Cc1cnc[nH]1)C(=O)N[C@@H](CO)C(=O)N[C@@H](Cc1cnc[nH]1)C(=O)N[C@@H](CCCNC(=N)N)C(=O)NCC(=O)N[C@@H](Cc1ccc(O)cc1)C(=O)O` [Hst-5, reference compound], the amount remaining at 2 h, 150 μg mL^−1 at Sap2 [4] (Candida albicans, isolated enzyme) came to 61%; on Sap9 [5], 47%. Also, the “mass spectrometry signal of intact peptide versus fragments, Sap2” value on Sap2 [6] is “intact peptide having the highest signal”. On Sap9 [7], the “mass spectrometry signal of intact peptide versus fragments, Sap9” value is “signal for the degradation fragment containing amino acids 1-17 of Hst-5 was higher than the intact peptide”.
For the compound DSHAKRHHGYKRKFHELHHSHRGY, the cleaved bond entry in the data set on Sap2 [1] is “L17-H18”.
